ChEMBL document CHEMBL4400559, “Exploiting the furo[2,3-b]pyridine core against multidrug-resistant Mycobacterium tuberculosis” (Bioorg Med Chem Lett, 2019)
In brackets after ≈: the same amount, converted by molar mass.

Tests used:
Type in all cases: functional
[1] = system: Mycobacterium tuberculosis; assay: Antibacterial activity against drug-resistant Mycobacterium tuberculosis isolate 1 after 7 days by resazurin microtiter assay; conditions: isolate 1, 168 h
[2] = system: Mycobacterium tuberculosis; assay: Antibacterial activity against drug-resistant Mycobacterium tuberculosis isolate 2 after 7 days by resazurin microtiter assay; conditions: isolate 2, 168 h
[3] = system: Mycobacterium tuberculosis; assay: Antibacterial activity against drug-resistant Mycobacterium tuberculosis isolate 3 after 7 days by resazurin microtiter assay; conditions: isolate 3, 168 h
[4] = system: Mycobacterium tuberculosis; assay: Antibacterial activity against drug-resistant Mycobacterium tuberculosis isolate 4 after 7 days by resazurin microtiter assay; conditions: isolate 4, 168 h
[5] = system: Mycobacterium tuberculosis; assay: Antibacterial activity against drug-resistant Mycobacterium tuberculosis isolate 5 after 7 days by resazurin microtiter assay; conditions: isolate 5, 168 h

Row | SMILES | MIC [1] [µM] | MIC [2] [µM] | MIC [3] [µM] | MIC [4] [µM] | MIC [5] [µM]
1 | N[C@@H]1CONC1=O [CYCLOSERINE] | 242 (≈ 24.7 µg/mL) | 121 (≈ 12.3 µg/mL) | > 245 | 167 (≈ 17 µg/mL) | 196 (≈ 20.1 µg/mL)
2 | NCC[C@H](O)C(=O)N[C@@H]1C[C@H](N)[C@@H](O[C@H]2O[C@H](CN)[C@@H](O)[C@H](O)[C@H]2O)[C@H](O)[C@H]1O[C@H]1O[C@H](CO)[C@@H](O)[C@H](N)[C@H]1O [AMIKACIN] | 0.4 (≈ 0.234 µg/mL) | 1.6 (≈ 0.937 µg/mL) | 0.4 (≈ 0.234 µg/mL) | 0.7 (≈ 0.41 µg/mL) | 1.7 (≈ 0.996 µg/mL)
3 | CO[C@H]1/C=C/O[C@@]2(C)Oc3c(C)c(O)c4c(O)c(c(/C=N/N5CCN(C)CC5)c(O)c4c3C2=O)NC(=O)/C(C)=C\C=C\[C@H](C)[C@H](O)[C@@H](C)[C@@H](O)[C@@H](C)[C@H](OC(C)=O)[C@@H]1C [RIFAMPIN] | – | > 30.4 | > 30.4 | > 30.4 | > 30.4
4 | CC[C@@H](CO)NCCN[C@@H](CC)CO [ETHAMBUTOL] | > 122 | > 122 | > 122 | > 122 | > 122
5 | NNC(=O)c1ccncc1 [ISONIAZID] | > 182 | > 182 | > 182 | > 182 | > 182
6 | COc1c(N2C[C@@H]3CCCN[C@@H]3C2)c(F)cc2c(=O)c(C(=O)O)cn(C3CC3)c12 [MOXIFLOXACIN] | 0.3 (≈ 0.12 µg/mL) | 0.7 (≈ 0.281 µg/mL) | 0.5 (≈ 0.201 µg/mL) | 1.4 (≈ 0.562 µg/mL) | 0.4 (≈ 0.161 µg/mL)
7 | CCOC(=O)c1c(C)oc2nc(N3CCCC3)ccc12 | 18.1 (≈ 4.97 µg/mL) | 20.2 (≈ 5.54 µg/mL) | 9.3 (≈ 2.55 µg/mL) | 15.8 (≈ 4.33 µg/mL) | 16.6 (≈ 4.55 µg/mL)
8 | CCCCNc1ccc2c(C(=O)OCC)c(C(C)C)oc2n1 | > 82.2 | > 82.2 | > 82.2 | > 82.2 | > 82.2
